Data published in patent US10144817B2, “Active and intelligent additive, polymer and article” (Braskem S.A., priority 2010, dated 2018).

Assay: Decomposition temperature of sensitive compounds and of the encapsulated additives
Assay type: physicochemical
Conditions: not encapsulated
Text: The sensitive compounds set forth in Table 1 constitute preferred examples of compounds that may be used in the preparation of the active and intelligent additive according to the present invention. The sensitive compounds release a certain amount of electrons according to the characteristic reaction for each compound.

Compound	Decomposition Temperature of the Sensitive Compound
Citric Acid	175 °C
O=C1O[C@H]([C@@H](O)CO)C(O)=C1O [Ascorbic Acid]	190 °C
